Measured values reported in US9102648B1, “Bioavailable diacylhydrazine ligands for modulating the expression of exogenous genes via an ecdysone receptor complex” (Intrexon Corporation, priority 2003, dated 2015).

Key:
[1] = Determination of LC Log P (experimental); format: physicochemical; details: diacylhydrazine log P standards (log P known experimentally)
Experimental: Liquid chromatography retention times (RT) are measured for each substance using the conditions described below. A linear equation is derived relating RT to log P is developed from the data for the log P standards. The log P for the test compound is calculated from the log P/retention time equation.

[2] = test system: mutated ecdysone receptor-based gene switch; experiment: In vivo SEAP induction, ligand by IP injection; design: species or system C57BL/6 mouse; details: IP 26 nmol ligand
Experimental: Applicants' ligands are useful in various applications including gene therapy, expression of proteins of interest in host cells, production of transgenic organisms, and cell-based assays. In vivo induction of a reporter enzyme with various ligands of the present invention was evaluated in a C57BL/6 mouse model system containing a gene switch.
Each element of the gene switch was on a separate plasmid. Receptor expression was under the control of a CMV promoter (SEQ ID NO: 15). Induction was evaluated by the amount of reporter protein expressed in the presence of ligand.
SEAP expression in serum of mice was evaluated after electroporation of the gene switch into mouse quadriceps. Mice were anesthetized with 2 μL/g of a mixture of ketamine (100 mg/mL) and xylazine (20 mg/mL). Animals were then shaved, DNA vectors injected into the muscle in a volume of 2×50 μL polyglutamic acid (12 mg/mL water), electrode conductivity gel applied, and an electrode caliber (1 cm×1 cm; model 384) was placed on hind leg. The muscle was electroporated with 200 V/cm, 8 times, for 20 msec/pulse, at 1 sec time intervals. The transverse electrical field direction was reversed after the animals received half of the pulses. Electroporation was performed with an ECM 830 electroporator from BTX Molecular Delivery Systems.
In some experiments mice received an intraperitoneal injection (IP) of 2.6 μmol of ligand in 50 μL of DMSO 3 days after electroporation of the gene switch. In other experiments the concentration of ligand was decrease to 26 nmol/50 μL of DMSO/mouse. SEAP expression was evaluated 2-11 days after ligand administration. In other experiments ligand was administered in rodent chow. The chow was prepared by dissolving 2 g of ligand in 20 mL of acetone and adding it to 1 kg of LabDiet 5010 autoclavable chow from Purina Mills. This was thoroughly mixed in a Hobart mixer and then mixed for an additional 15 min in a Cross Blend mixer. Animals received chow ad libitum for 1, 2, or 3 days. All values are the average from four animals. Background SEAP in sera from animals treated with vector alone without ligand addition was 0-11 ng/mL serum.
Mouse serum was obtained by centrifugation of blood acquired by retroorbital bleeding with a small glass capillary tube. SEAP quantification was determined using a Clontech Great Escape chemiluminescence kit and by comparison with the Clontech SEAP standard.
Table 9: In vivo evaluation of ligand-mediated induction of a mutated ecdysone receptor-based gene switch. SEAP expression in serum of mice was evaluated after electroporation of the gene expression cassettes into mouse quadriceps. Mice received an IP injection of 2.6 μmol of ligand 3 days after electroporation. SEAP expression was evaluated 2-11 days after ligand administration. Each dose group was composed of four animals. Percentage of GS™-E ligand induction was determined by averaging SEAP expression from four animals divided by the average SEAP expression induced with GS™-E ligand and then multiplying by 100.
Table 10: Induction of gene switch expression with low concentrations of ligand. SEAP expression in serum of mice was evaluated after electroporation of the gene expression cassettes into mouse quadriceps. Mice received an IP injection of 26 nmol of ligand or 130 nmol GS™-E ligand 3 days after electroporation. SEAP expression was evaluated 2-7 days after ligand administration. Values are the average from 4 animals.

[3] = biological target: GAL4 DBD (1-147)-CfEcR(DEF)/VP16AD-βRXREF-LmUSPEF (Choristoneura fumiferana, UniProt O77240); experiment: cell-based
Caco-2 monolayers = experiment: Bi-directional permeability, CACO-2; format: in vitro ADME; details: for Papp B-A / Papp A-B Ratio: Caco-2 efflux ratio
Experimental: (§1) Caco-2 monolayers were grown to confluence on collagen-coated, microporous, polycarbonate membranes in 12-well Costar Transwell plates. Details of the plates and their certification are shown below. The permeability assay buffer was Hank's Balanced Salt Solution containing 10 mM HEPES and 15 mM glucose at a pH of 7.0±0.2. The dosing solution concentration was 10 μM in assay buffer. At each time point, 1 and 2 hours, a 200-μL aliquot was taken from the receiver chamber and replaced with fresh assay buffer. Cells were dosed on the apical side (A-to-B) or basolateral side (B-to-A) and incubated at 37° C. with 5% CO2 and 90% relative humidity. Each determination was performed in duplicate. The important experimental parameters are outlined below. Permeability through a cell-free (blank) membrane was studied to determine non-specific binding and free diffusion of the compound through the device. Lucifer yellow flux was also measured for each monolayer after being subjected to the test compounds to ensure no damage was inflicted to the cell monolayers during the flux period.
(§2) All samples were assayed by LC/MS using electrospray ionization. Typical LC/MS conditions are as follows:
(§3) dCr/dt is the cumulative concentration in the receiver compartment versus time in M s^−1.
(§4) Vr is the volume of the receiver compartment in cm^3.
(§5) Vd is the volume of the donor compartment in cm^3.
(§6) A is the area of the cell monolayer (1.13 cm^2 for 12-well Transwell).
(§7) C0 is the concentration of the dosing solution in M.
(§8) Cr^final is the cumulative receiver concentration in M at the end of the incubation period.
(§9) Cd^final is the concentration of the donor in M at the end of the incubation period.

[4] = biological target: T1, Bombyx mori EcR (VP16 fusion, CVBE switch construct) (Bombyx mori, UniProt P49881); experiment: Z3 Assay (HEK-293 cells with CVBE and 6XEcRE LacZ, β-galactosidase reporter); details: for Fold Induction, Z3 Assay, 3.3 uM: 3.3 uM ligand; for Z3 assay Rel Max FI: maximum fold induction at any concentration relative to that of GS-E ligand; for Z3 assay Rel Max FI / EC50: HEK-293 Z3 cells; for EC50: read-out: Z3 assay EC50, β-galactosidase reporter
T1 sequence (P49881 86-606): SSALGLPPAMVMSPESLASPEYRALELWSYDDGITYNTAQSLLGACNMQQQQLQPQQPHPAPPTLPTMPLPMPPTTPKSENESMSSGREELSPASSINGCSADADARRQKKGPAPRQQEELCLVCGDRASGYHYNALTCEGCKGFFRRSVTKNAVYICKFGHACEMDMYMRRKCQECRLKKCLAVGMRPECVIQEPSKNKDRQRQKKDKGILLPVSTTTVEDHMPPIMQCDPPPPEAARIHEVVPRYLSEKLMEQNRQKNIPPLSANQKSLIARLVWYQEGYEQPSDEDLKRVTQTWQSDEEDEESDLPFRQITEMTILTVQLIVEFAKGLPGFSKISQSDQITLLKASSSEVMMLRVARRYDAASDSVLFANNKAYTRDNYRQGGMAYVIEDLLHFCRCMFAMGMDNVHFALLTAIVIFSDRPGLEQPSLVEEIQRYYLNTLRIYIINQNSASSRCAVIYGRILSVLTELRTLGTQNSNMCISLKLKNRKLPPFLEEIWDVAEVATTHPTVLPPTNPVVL
T1 sequence (P19793 1-462 partner): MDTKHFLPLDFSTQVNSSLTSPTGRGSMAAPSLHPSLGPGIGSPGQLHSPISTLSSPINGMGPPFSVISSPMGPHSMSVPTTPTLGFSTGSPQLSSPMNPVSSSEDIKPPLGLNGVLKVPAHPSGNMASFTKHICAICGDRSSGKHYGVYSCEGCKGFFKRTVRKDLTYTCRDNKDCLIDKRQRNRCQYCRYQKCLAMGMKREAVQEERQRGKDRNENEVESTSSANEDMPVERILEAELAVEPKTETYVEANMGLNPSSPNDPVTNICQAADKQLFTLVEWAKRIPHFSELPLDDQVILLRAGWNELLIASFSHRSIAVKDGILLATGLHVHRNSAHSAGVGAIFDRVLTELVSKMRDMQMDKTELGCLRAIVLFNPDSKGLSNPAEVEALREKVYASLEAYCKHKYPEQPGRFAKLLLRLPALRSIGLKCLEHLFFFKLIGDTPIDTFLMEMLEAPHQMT

[5] = Aqueous equilibrium solubility in pH 7.4 buffer; details: pH 7.4 aqueous buffer, room temperature, equilibrium
Experimental: Equilibrium solubility was measured in pH 7.4 aqueous buffer. The buffer was prepared by adjusting the pH of a 0.07 M solution of NaH2PO4 to pH 7.4 with 10 N NaOH. […] At least 1 mg of powder was combined with 1 mL of buffer to make >1 mg/mL mixture. These samples were shaken for ≧2 hours and left to stand overnight at room temperature. The samples were then filtered through a 0.45-μm Nylon syringe filter that was first saturated with the sample. The filtrate was sampled twice, consecutively. The filtrate was assayed by HPLC against standards prepared in methanol.

[6] = Partition coefficient Log (D), 1-octanol / pH 7.4 buffer; format: physicochemical; details: for Log(D) Octanol/pH 7.4: water-saturated 1-octanol / pH 7.4 buffer, room temperature
Experimental: The partition coefficient, Log (D), between water-saturated 1-octanol and pH 7.4 buffer was determined for the test compounds. The buffer was prepared as described in section 2. A 12 μl aliquot of a 10 mM stock solution in DMSO was introduced to a vial containing 0.60 mL of octanol and 0.60 mL of buffer at room temperature. Testosterone was also added to a final concentration of 100 μM as an internal control. The solution was vortexed for 60 minutes and centrifuged at 10,000 rpm for 10 minutes. The organic and aqueous layers were removed. Serial dilutions of the organic layer were made with 50% methanol except for the initial dilution, which was made in 100% methanol. Serial dilutions of the aqueous layer were made in the pH 7.4 buffer. The diluted samples were then assayed by LC/MS for the compound as well as for testosterone. The Log of the ratio of peak area responses was calculated to obtain the Log (D). Typical Log D values for testosterone are from 3.0-3.3.

[7] = Bi-directional permeability, CACO-2; format: in vitro ADME; details: human, Caco-2, Papp × 10^−6 cm/s (plate certification)
Experimental: as §1, §2, §3, §4, §5, §6, §7, §8, §9

[8] = ligand treated / DMSO treated cells, average of two wells

| Molecule | logP [1] | Solubility pH 7.4 [5] | Log(D) Octanol/pH 7.4 [6] | Papp Blank (Caco-2 monolayers; Caco-2) | Papp, A-to-B Avg (Caco-2 monolayers; Caco-2) | Papp, A-to-B Rep. 1 (Caco-2 monolayers; Caco-2) | Papp, A-to-B Rep. 2 (Caco-2 monolayers; Caco-2) | Papp, B-to-A Avg (Caco-2 monolayers; Caco-2) | Papp, B-to-A Rep. 1 (Caco-2 monolayers; Caco-2) | Papp, B-to-A Rep. 2 (Caco-2 monolayers; Caco-2) | further results |
| --- | --- | --- | --- | --- | --- | --- | --- | --- | --- | --- | --- |
| Cc1cc(C)cc(C(=O)N(NC(=O)c2cccc(O)c2C)C(C)(C)C)c1 [RG-102208, reference compound] | 2.9 |  |  |  |  |  |  |  |  |  |  |
| CCCC(N(NC(=O)c1ccc2c(c1C)OCCO2)C(=O)c1cc(C)cc(C)c1)C(C)(C)C (stereo not drawn) [RG-115864, 3,5-Dimethyl-benzoic acid N-(1-tert-butyl-butyl)-N′-(5-methyl-2,3-dihydro-benzo[1,4]dioxine-6-carbonyl)-hydrazide] |  |  |  |  |  |  |  |  |  |  | Secreted Alkaline Phosphatase Day 2 ([2]; day 2): 6,722 ng/ml mouse sera; Secreted Alkaline Phosphatase Day 3 ([2]; day 3): 5,652 ng/ml mouse sera; EC50 [3]: 0.004 µM; 27-63 assay Rel Max FI ([3]; maximum fold induction at any concentration relative to that of GS-E ligand, CHO 27-63 cells): 0.979; fold induction at 33 µM ([3]; read-out: Fold Induction, 27-63 Assay, 33 uM): 1260 |
| Lucifer Yellow [reference compound] |  |  |  |  |  |  |  |  |  |  | Papp × 10^−6 cm/s (plate certification) (Caco-2 monolayers; Caco-2 plate TW12, first certification column (seed date Jun. 11, 2002)): 0.14 10^−6 cm/s; Papp × 10^−6 cm/s (plate certification) (Caco-2 monolayers; Caco-2 plate TW12, second certification column (seed date Jun. 18, 2002)): 0.12 10^−6 cm/s |
| CCc1ccc(C(=O)NN(C(=O)c2cc(Cl)cc(Cl)c2)C(C)(C)C)c(F)c1 [RG-115372, reference compound] | 5.02 |  |  |  |  |  |  |  |  |  |  |
| CCc1c(C(=O)NN(C(=O)c2ccc(F)cc2Cl)C(C)(C)C)ccc2c1OCOC2 [RG-115002, reference compound] | 3.5 |  |  |  |  |  |  |  |  |  |  |
| CCc1c(OC)cccc1C(=O)NN(C(=O)c1ccccc1[S+](C)[O-])C(C)(C)C (stereo not drawn) [RG-115199] |  | 0.0064 mg/mL | 2.0 | 23.0 10^−6 cm/s | 30.6 10^−6 cm/s | 31.1 10^−6 cm/s | 30.2 10^−6 cm/s | 30.9 10^−6 cm/s | 31.0 10^−6 cm/s | 30.9 10^−6 cm/s | Fold Induction, Z3 Assay, 3.3 uM [4, 8]: 349; Z3 assay Rel Max FI [4]: 0.734; EC50 ([4]; average of two wells): 3.47 µM; Significant Efflux (Caco-2 monolayers; Caco-2): No; Papp B-A / Papp A-B Ratio (Caco-2 monolayers): 1.0 |
| CCc1c(OC)cccc1C(=O)NN(C(=O)c1ccccc1S(=O)(=O)O)C(C)(C)C [RG-115555] |  | ≧1.0 mg/mL | 0.0 | 35.8 10^−6 cm/s | 0.18 10^−6 cm/s | 0.18 10^−6 cm/s | 0.18 10^−6 cm/s | 1.61 10^−6 cm/s | 1.55 10^−6 cm/s | 1.67 10^−6 cm/s | Fold Induction, Z3 Assay, 3.3 uM [4, 8]: 1; Z3 assay Rel Max FI [4]: 0.006; EC50 ([4]; average of two wells): > 50 µM; Papp B-A / Papp A-B Ratio (Caco-2 monolayers): 8.9 |
| CC(O)c1ccc(C(=O)NN(C(=O)c2cc(CO)cc(CO)c2)C(C)(C)C)cc1 (stereo not drawn) [RG-100021] |  | ≧1.0 mg/mL | 0.8 | 43.0 10^−6 cm/s | 0.22 10^−6 cm/s | 0.21 10^−6 cm/s | 0.22 10^−6 cm/s | 0.93 10^−6 cm/s | 0.91 10^−6 cm/s | 0.95 10^−6 cm/s | Fold Induction, Z3 Assay, 33 uM ([4]; 33 uM ligand, ligand treated / DMSO treated cells, average of two wells): 1; Significant Efflux (Caco-2 monolayers; Caco-2): No |
| C[C@]12CC[C@H]3[C@@H](CCC4=CC(=O)CC[C@@]43C)[C@@H]1CC[C@@H]2O [testosterone, Testosterone, reference compound] |  |  |  |  |  |  |  |  |  |  | logD ([6]; internal control, octanol / pH 7.4 buffer, read-out: Typical Log D values): 3 to 3.3 |
| CC(C)NCC(O)COc1cccc2ccccc12 (stereo not drawn) [Propranolol, reference compound] |  |  |  |  |  |  |  |  |  |  | Papp × 10^−6 cm/s (plate certification) (Caco-2 monolayers; human, Caco-2): 19 10^−6 cm/s; Papp [7]: 20 ×10⁻⁶ cm/s |
